Counter-ions that a name gives are not always drawn.

The record followed here is patent US9409908B2 (priority 2012, dated 2016).

Test [1] deals with purified human Factor XIa (Homo sapiens (Human), UniProt P03951). In words: biochemical. The note with it: read-out: Factor XIa Ki. The class given is biochemical.
Test [2] deals with purified human plasma kallikrein (Homo sapiens (Human), UniProt P03952). In words: biochemical. The class given is biochemical. The note with it: read-out: Plasma Kallikrein Ki.
Chain of purified human plasma kallikrein (P03952 whole entry, looked up): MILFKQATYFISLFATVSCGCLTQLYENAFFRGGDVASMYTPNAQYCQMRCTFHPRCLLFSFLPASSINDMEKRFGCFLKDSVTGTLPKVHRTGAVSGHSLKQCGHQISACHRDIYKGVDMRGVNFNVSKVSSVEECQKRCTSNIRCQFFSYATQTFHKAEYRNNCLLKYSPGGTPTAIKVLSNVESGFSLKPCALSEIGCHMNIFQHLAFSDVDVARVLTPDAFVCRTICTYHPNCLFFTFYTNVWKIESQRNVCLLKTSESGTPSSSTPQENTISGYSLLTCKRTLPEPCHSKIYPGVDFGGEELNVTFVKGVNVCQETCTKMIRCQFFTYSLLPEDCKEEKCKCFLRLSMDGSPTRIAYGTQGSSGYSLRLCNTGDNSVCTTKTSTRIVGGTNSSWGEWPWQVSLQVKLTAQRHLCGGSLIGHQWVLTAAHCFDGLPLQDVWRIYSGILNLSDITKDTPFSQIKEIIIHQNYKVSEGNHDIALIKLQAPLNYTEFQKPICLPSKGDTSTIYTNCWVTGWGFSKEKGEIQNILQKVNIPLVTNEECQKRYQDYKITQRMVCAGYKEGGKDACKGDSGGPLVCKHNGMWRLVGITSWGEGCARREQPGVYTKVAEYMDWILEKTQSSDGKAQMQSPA
Chain of purified human plasma kallikrein (P03952 whole entry partner, looked up): as the sequence (P03952 whole entry, looked up) above

Chain of purified human Factor XIa (P03951 whole entry, looked up): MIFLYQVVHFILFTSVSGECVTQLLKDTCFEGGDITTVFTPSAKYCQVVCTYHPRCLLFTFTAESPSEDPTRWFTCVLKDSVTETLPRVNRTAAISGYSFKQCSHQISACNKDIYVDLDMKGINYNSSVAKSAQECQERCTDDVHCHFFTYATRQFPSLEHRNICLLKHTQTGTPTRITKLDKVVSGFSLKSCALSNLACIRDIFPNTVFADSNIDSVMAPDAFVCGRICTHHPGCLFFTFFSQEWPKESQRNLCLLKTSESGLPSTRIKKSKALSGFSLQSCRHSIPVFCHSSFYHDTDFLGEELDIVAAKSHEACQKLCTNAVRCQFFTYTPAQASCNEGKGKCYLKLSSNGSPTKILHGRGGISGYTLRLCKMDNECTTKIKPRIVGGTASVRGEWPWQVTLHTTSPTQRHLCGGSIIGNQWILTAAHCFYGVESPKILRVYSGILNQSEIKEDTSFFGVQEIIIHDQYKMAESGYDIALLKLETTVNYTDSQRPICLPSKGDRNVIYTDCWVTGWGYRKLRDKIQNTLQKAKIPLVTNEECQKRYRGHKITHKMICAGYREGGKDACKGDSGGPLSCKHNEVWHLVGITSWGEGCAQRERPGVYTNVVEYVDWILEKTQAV
Chain of purified human Factor XIa (P03951 whole entry partner, looked up): as the sequence (P03951 whole entry, looked up) above

The term Ki denotes a measure of affinity in units of concentration, obtained from inhibition or displacement. In the case of `C[C@@H]1CCC[C@H](N2CCC(c3c(F)ccc(Cl)c3F)=CC2=O)c2cc(ccn2)-c2ccc(Nc3ccncc3)cc2NC1=O` [Example 89, (10R,14S)-14-[4-(3-Chloro-2,6-difluorophenyl)-6-oxo-1,2,3,6-tetrahydropyridin-1-yl]-10-methyl-5-[(pyridin-4-yl)amino]-8,16-diazatricyclo[13.3.1.0^2,7]nonadeca-1(19),2(7),3,5,15,17-hexaen-9-one, 2 TFA salt], the Ki in test [1] was 2.43 nM; in test [2], 5 nM.

Take `C[C@@H]1CCC[C@H](N2CCC(c3c(F)ccc(Cl)c3F)=CC2=O)c2cc(ccn2)-c2ccc(Nc3ccncn3)cc2NC1=O` [Example 90, (10R,14S)-14-[4-(3-Chloro-2,6-difluorophenyl)-6-oxo-1,2,3,6-tetrahydropyridin-1-yl]-10-methyl-5-[(pyrimidin-4-yl)amino]-8,16-diazatricyclo[13.3.1.0^2,7]nonadeca-1(19),2(7),3,5,15,17-hexaen-9-one, 2 TFA salt]: the Ki in test [1] was determined as 1.81 nM; in test [2], 4 nM.

Take `C[C@@H]1CCC[C@H](N2CCC(c3c(F)ccc(Cl)c3F)=CC2=O)c2cc(ccn2)-c2ccc(Nc3cnccn3)cc2NC1=O` [Example 93, (10R,14S)-14-[4-(3-Chloro-2,6-difluorophenyl)-6-oxo-1,2,3,6-tetrahydropyridin-1-yl]-10-methyl-5-[(pyrazin-2-yl)amino]-8,16-diazatricyclo[13.3.1.0^2,7]nonadeca-1(19),2(7),3,5,15,17-hexaen-9-one, 2 TFA salt]: the Ki in test [1] was found to be 1.4 nM; in test [2] it was 3 nM.

`CC(C)[C@@H]1CCC[C@H](N2CCC(c3c(F)ccc(Cl)c3F)=CC2=O)c2cc(ccn2)-c2ccccc2NC1=O` [Example 95, (10S,14S)-14-[4-(3-chloro-2,6-difluorophenyl)-6-oxo-1,2,3,6-tetrahydropyridin-1-yl]-10-(propan-2-yl)-8,16-diazatricyclo[13.3.1.0^2,7]nonadeca-1(18),2,4,6,15(19),16-hexaen-9-one, TFA salt]: the results for the Ki in test [1] and in test [2] were 46.5 nM and 107 nM, respectively.

For the compound `CC(C)[C@H]1CCC[C@H](N2CCC(c3c(F)ccc(Cl)c3F)=CC2=O)c2cc(ccn2)-c2ccccc2NC1=O` [Example 96, (10R,14S)-14-[4-(3-chloro-2,6-difluorophenyl)-6-oxo-1,2,3,6-tetrahydropyridin-1-yl]-10-(propan-2-yl)-8,16-diazatricyclo[13.3.1.0^2,7]nonadeca-1(18),2,4,6,15(19),16-hexaen-9-one, TFA salt], the values for the Ki in test [1] and in test [2] were greater than 422 nM and 1970 nM, respectively.

Take `COC(=O)Nc1ccc2c(c1)NC(=O)[C@H](C)CCC[C@H](N1CCC(C3CCCCC3)=CC1=O)c1cc-2ccn1` [Example 98, Methyl N-[(10R,14S)-14-(4-cyclohexyl-6-oxo-1,2,3,6-tetrahydropyridin-1-yl)-10-methyl-9-oxo-8,16-diazatricyclo[13.3.1.0^2,7]nonadeca-1(19),2,4,6,15,17-hexaen-5-yl]carbamate, TFA salt]: the Ki in test [1] worked out at 30.1 nM; in test [2] it was 36 nM.

Take `COC(=O)Nc1ccc2c(c1)NC(=O)[C@H](C)CCC[C@H](N1CCC(c3cncc(Cl)c3)=CC1=O)c1cc-2ccn1` [Example 99, Methyl N-[(10R,14S)-14-[4-(5-chloropyridin-3-yl)-6-oxo-1,2,3,6-tetrahydropyridin-1-yl]-10-methyl-9-oxo-8,16-diazatricyclo[13.3.1.0^2,7]nonadeca-1(19),2,4,6,15,17-hexaen-5-yl]carbamate, his TFA salt]: the Ki in test [1] worked out at 126 nM; in test [2] it was 2400 nM.

For `CC1CCC[C@H](N2CCC(c3c(F)ccc(Cl)c3F)=CC2=O)c2cc(ccn2)-c2ccc(C(=O)O)cc2NC1=O` (stereo partly drawn) [Example 105, (14S)-14-[4-(3-Chloro-2,6-difluorophenyl)-6-oxo-1,2,3,6-tetrahydropyridin-1-yl]-10-methyl-9-oxo-8,16-diazatricyclo[13.3.1.0^2,7]nonadeca-1(18),2,4,6,15(19),16-hexaene-5-carboxylic acid, TFA salt], the values for the Ki in test [1] and in test [2] were greater than 342 nM and 3920 nM, respectively.

As for `CC1CCC[C@H](N2CCC(c3c(C(F)(F)F)ccc(Cl)c3F)=CC2=O)c2cc(ccn2)-c2ccc(C(=O)O)cc2NC1=O` (stereo partly drawn) [Example 106, (14S)-14-{4-[3-Chloro-2-fluoro-6-(trifluoromethyl)phenyl]-6-oxo-1,2,3,6-tetrahydropyridin-1-yl}-10-methyl-9-oxo-8,16-diazatricyclo[13.3.1.0^2,7]nonadeca-1(18),2,4,6,15(19),16-hexaene-5-carboxylic acid, TFA salt], the Ki in test [1] is greater than 342 nM; in test [2], 890 nM.

Consider `CC1CCC[C@H](N2CCC(c3c(F)ccc(Cl)c3F)=CC2=O)c2cc(ccn2)-c2ccc(C(N)=O)cc2NC1=O` (stereo partly drawn) [Example 107, (14S)-14-[4-(3-Chloro-2,6-difluorophenyl)-6-oxo-1,2,3,6-tetrahydropyridin-1-yl]-10-methyl-9-oxo-8,16-diazatricyclo[13.3.1.0^2,7]nonadeca-1(18),2,4,6,15(19),16-hexaene-5-carboxamide, TFA salt], for which the Ki in test [1] came out at 17.4 nM; in test [2] it was 88 nM.

Take `CC1CCC[C@H](N2CCC(c3c(C(F)(F)F)ccc(Cl)c3F)=CC2=O)c2cc(ccn2)-c2ccc(C(N)=O)cc2NC1=O` (stereo partly drawn) [Example 108, (14S)-14-{4-[3-Chloro-2-fluoro-6-(trifluoromethyl)phenyl]-6-oxo-1,2,3,6-tetrahydropyridin-1-yl}-10-methyl-9-oxo-8,16-diazatricyclo[13.3.1.0^2,7]nonadeca-1(18),2,4,6,15(19),16-hexaene-5-carboxamide, TFA salt]: the Ki in test [1] was 8.13 nM; in test [2], 29 nM.

Turning to `COC(=O)Nc1ccc2c(c1)NC(=O)[C@H](C)CCC[C@H](N1CCC(c3cc(Cl)ccc3C)=CC1=O)c1cc-2ccn1` [Example 110, Methyl N-[(10R,14S)-14-[4-(5-chloro-2-methylphenyl)-6-oxo-1,2,3,6-tetrahydropyridin-1-yl]-10-methyl-9-oxo-8,16-diazatricyclo[13.3.1.0^2,7]nonadeca-1(18),2,4,6,15(19),16-hexaen-5-yl]carbamate], the Ki is 0.62 nM in test [1] and 3.91 nM in test [2].

For `COC(=O)Nc1ccc2c(c1)NC(=O)[C@H](C)CCC[C@H](N1CCC(c3c(F)ccc(C)c3F)=CC1=O)c1cc-2ccn1` [Example 111, Methyl N-[(10R,14S)-14-[4-(2,6-difluoro-3-methylphenyl)-6-oxo-1,2,3,6-tetrahydropyridin-1-yl]-10-methyl-9-oxo-8,16-diazatricyclo[13.3.1.0^2,7]nonadeca-1(18),2,4,6,15(19),16-hexaen-5-yl]carbamate], the figures for the Ki in test [1] and in test [2] were 1.42 nM and 3.25 nM, respectively.

As for `COC(=O)Nc1ccc2c(c1)NC(=O)[C@H](C)CCC[C@H](N1CCC(c3cc(C)ccc3F)=CC1=O)c1cc-2ccn1` [Example 113, Methyl N-[(10R,14S)-14-[4-(2-fluoro-5-methylphenyl)-6-oxo-1,2,3,6-tetrahydropyridin-1-yl]-10-methyl-9-oxo-8,16-diazatricyclo[13.3.1.0^2,7]nonadeca-1(18),2,4,6,15(19),16-hexaen-5-yl]carbamate], the Ki in test [1] stood at 7.24 nM; in test [2], 15.6 nM.

Take `COC(=O)Nc1ccc2c(c1)NC(=O)[C@H](C)CCC[C@H](N1CCC(c3cccc(C)c3C)=CC1=O)c1cc-2ccn1` [Example 114, Methyl-N-[(10R,14S)-14-[4-(2,3-dimethylphenyl)-6-oxo-1,2,3,6-tetrahydropyridin-1-yl]-10-methyl-9-oxo-8,16-diazatricyclo[13.3.1.0^2,7]nonadeca-1(18),2,4,6,15(19),16-hexaen-5-yl]carbamate]: the figures for the Ki in test [1] and in test [2] were 108 nM and 143 nM, respectively.

For the compound `COC(=O)Nc1ccc2c(c1)NC(=O)[C@H](C)CCC[C@H](N1CCC(c3ccccc3OC)=CC1=O)c1cc-2ccn1` [Example 116, Methyl N-[(10R,14S)-14-[4-(2-methoxyphenyl)-6-oxo-1,2,3,6-tetrahydropyridin-1-yl]-10-methyl-9-oxo-8,16-diazatricyclo[13.3.1.0^2,7]nonadeca-1(18),2,4,6,15(19),16-hexaen-5-yl]carbamate], the Ki is 267 nM in test [1] and 739 nM in test [2].

`COC(=O)Nc1ccc2c(c1)NC(=O)[C@H](C)CCC[C@H](N1CCC(c3ccc(OC)cc3)=CC1=O)c1cc-2ccn1` [Example 117, Methyl N-[(10R,14S)-14-[4-(4-methoxyphenyl)-6-oxo-1,2,3,6-tetrahydropyridin-1-yl]-10-methyl-9-oxo-8,16-diazatricyclo[13.3.1.0^2,7]nonadeca-1(18),2,4,6,15(19),16-hexaen-5-yl]carbamate]: the Ki in test [1] is greater than 398 nM; in test [2], greater than 13000 nM.

Take `COC(=O)Nc1ccc2c(c1)NC(=O)[C@H](C)CCC[C@H](N1CCC(c3cccc(Cl)c3OC)=CC1=O)c1cc-2ccn1` [Example 118, Methyl N-[(10R,14S)-14-[4-(3-chloro-2-methoxyphenyl)-6-oxo-1,2,3,6-tetrahydropyridin-1-yl]-10-methyl-9-oxo-8,16-diazatricyclo[13.3.1.0^2,7]nonadeca-1(18),2,4,6,15(19),16-hexaen-5-yl]carbamate]: the Ki was greater than 404 nM in test [1] and 2030 nM in test [2].

With `COC(=O)Nc1ccc2c(c1)NC(=O)C(C)(O)CCC[C@H](N1CCC(c3c(F)ccc(Cl)c3F)=CC1=O)c1cc-2ccn1` (stereo partly drawn) [Example 123, Methyl N-[(14S)-14-[4-(3-chloro-2,6-difluorophenyl)-6-oxo-1,2,3,6-tetrahydropyridin-1-yl]-10-hydroxy-10-methyl-9-oxo-8,16-diazatricyclo[13.3.1.0^2,7]nonadeca-1(19),2,4,6,15,17-hexaen-5-yl]carbamate, TFA salt], the Ki in test [1] came out at 20.1 nM; in test [2], 26.1 nM.
